Reference: ChEMBL document CHEMBL1156485, “Distinct structural changes in a G protein-coupled receptor caused by different classes of agonist ligands” (J Biol Chem, 2007)
pEC50, pKi: −log10 of the molar value. Calls of active or inactive are those of the source. The rule behind the calls is not given here.

Key:
[1] = system: Muscarinic acetylcholine receptor M3 (Rattus norvegicus), P08483 [A91C,T549C]; test: Inhibition of disulfide bond cross-linking in rat M3'(3C)-Xa receptor A91C/T549C mutant expressed in african green monkey COS7 cells at 1 mM by Western blotting; type: cell-based; settings: COS-7
Chain of Muscarinic acetylcholine receptor M3 (Rattus norvegicus), P08483 [A91C,T549C] (P08483 whole entry A91C/T549C): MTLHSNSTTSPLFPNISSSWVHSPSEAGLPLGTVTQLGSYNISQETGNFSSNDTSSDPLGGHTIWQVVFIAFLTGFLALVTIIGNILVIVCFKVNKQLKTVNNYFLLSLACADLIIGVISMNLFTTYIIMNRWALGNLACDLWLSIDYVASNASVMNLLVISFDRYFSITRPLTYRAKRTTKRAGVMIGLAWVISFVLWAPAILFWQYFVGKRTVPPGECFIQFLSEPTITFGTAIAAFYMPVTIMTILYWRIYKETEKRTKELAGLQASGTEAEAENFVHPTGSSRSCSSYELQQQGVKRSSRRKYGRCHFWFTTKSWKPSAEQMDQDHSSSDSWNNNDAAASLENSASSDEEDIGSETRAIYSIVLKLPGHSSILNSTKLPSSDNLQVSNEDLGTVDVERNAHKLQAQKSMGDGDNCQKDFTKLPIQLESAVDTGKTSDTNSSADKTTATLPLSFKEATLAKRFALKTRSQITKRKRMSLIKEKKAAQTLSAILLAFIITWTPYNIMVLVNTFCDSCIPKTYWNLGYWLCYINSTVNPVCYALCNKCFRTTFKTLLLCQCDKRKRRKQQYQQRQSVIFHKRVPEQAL

[2] = system: Muscarinic acetylcholine receptor M3 (Rattus norvegicus), P08483 [F92C,F550C]; test: Inhibition of disulfide bond cross-linking in rat M3'(3C)-Xa receptor F92C/F550C mutant expressed in african green monkey COS7 cells at 1 mM by Western blotting; type: cell-based; settings: COS-7
Chain of Muscarinic acetylcholine receptor M3 (Rattus norvegicus), P08483 [F92C,F550C] (P08483 whole entry F92C/F550C): as the sequence (P08483 whole entry A91C/T549C) above, with C91A, F92C, C549T, F550C counted along it

[3] = system: Muscarinic acetylcholine receptor M3 (Rattus norvegicus), P08483 [A91C,T549C]; test: Enhancement of disulfide bond cross-linking formation in rat M3'(3C)-Xa receptor A91C/T549C mutant expressed in african green monkey COS7 cells at 100 nM by Western blotting; type: cell-based; settings: COS-7
[4] = system: Muscarinic acetylcholine receptor M3 (Rattus norvegicus), P08483 [F92C,F550C]; test: Enhancement of disulfide bond cross-linking formation in rat M3'(3C)-Xa receptor F92C/F550C mutant expressed in african green monkey COS7 cells at 100 nM by Western blotting; type: cell-based; settings: COS-7
COS-7 = test: Inverse agonist activity at rat M3'(3C)-Xa receptor expressed in african green monkey COS7 cells assessed as reduction in basal inositol monophosphate accumulation at 10 uM; type: functional, cell-based
[5] = Agonist activity at rat M3'(3C)-Xa receptor expressed in african green monkey COS7 cells assessed as increase in myo-[3H]inositol hydrolysis; type: functional, cell-based; settings: COS-7
[6] = Displacement of [3H]NMS from rat M3'(3C)-Xa receptor expressed in african green monkey COS7 cells; type: cell-based; settings: cos-7
[7] = system: Muscarinic acetylcholine receptor M3 (Rattus norvegicus), P08483 [A91C,T549C]; test: Stimulation of disulfide bond cross-linking formation in rat M3'(3C)-Xa receptor A91C/T549C mutant expressed in african green monkey COS7 cells by scanning densitometry relative to control; type: cell-based; settings: COS-7
[8] = system: Muscarinic acetylcholine receptor M3 (Rattus norvegicus), P08483 [F92C,F550C]; test: Stimulation of disulfide bond cross-linking formation in rat M3'(3C)-Xa receptor F92C/F550C mutant expressed in african green monkey COS7 cells by scanning densitometry relative to control; type: cell-based; settings: COS-7
[9] = system: Muscarinic acetylcholine receptor M3 (Rattus norvegicus), P08483 [A91C,T549C]; test: Inverse agonist activity at rat M3'(3C)-Xa receptor A91C/T549C mutant expressed in african green monkey COS7 cells assessed as reduction in basal inositol monophosphate accumulation at 10 uM; type: functional, cell-based; settings: COS-7
[10] = system: Muscarinic acetylcholine receptor M3 (Rattus norvegicus), P08483 [F92C,F550C]; test: Inverse agonist activity at rat M3'(3C)-Xa receptor F92C/F550C mutant expressed in african green monkey COS7 cells assessed as reduction in basal inositol monophosphate accumulation at 10 uM; type: functional, cell-based; settings: COS-7

| SMILES | Activity [1] | Activity [2] | Activity [3] | Activity [4] | Activity (COS-7) | pEC50 [5] | pKi [6] | Emax [7] [%] | Emax [8] [%] | Activity [9] | Activity [10] |
| --- | --- | --- | --- | --- | --- | --- | --- | --- | --- | --- | --- |
| C[N+](C)(C)CC#CCN1CCCC1=O | Active | Active |  |  |  |  |  |  |  |  |  |
| CN1[C@@H]2CC[C@H]1C[C@@H](OC(=O)C(CO)c1ccccc1)C2 (stereo partly specified) |  |  | Active | Active | Active |  |  |  |  |  |  |
| C[N+](C)(C)CCOC(N)=O [CARBACHOL] | Active | Active |  |  |  | 7.20 | 4.64 |  |  |  |  |
| C[N+]1(C)[C@@H]2C[C@@H](OC(=O)[C@H](CO)c3ccccc3)C[C@H]1[C@@H]1O[C@@H]12 |  |  | Active | Active | Active |  |  | 244 | 192 | Active | Active |
